Laboratory results: patent US5846937A, “Method of using exendin and GLP-1 to affect the central nervous system” (1149336 Ontario Inc., priority 1997, dated 1998)

Assays:
[1] = test system: Wild-type (+/+), male CD1 mice; experiment: Line test (locomotor activity) after ICV injection, wild-type mice; format: in vivo; conditions: wild-type mice fasted overnight; ICV 5 μl; GLP-1 5 μg, Exendin(9-39) amide 10 μg, Exendin-4 amide 15 μg
Experimental: Male CD1 mice were used for these experiments. Wild-type (+/+), male CD1 mice (approx. 11 weeks old) were obtained from Charles River Canada (Quebec). Mice were acclimatized to the animal facility for several days prior to use in the actual experiments.
All mice were faster overnight 16 hours prior to the start of the experiment. Mice were lightly anesthetized by placing them in a covered beaker with 800 μl of Methoxyflurane (Metofane, Jannsen Pharmaceuticals) for approximately 3 minutes. Peptides were delivered into the ventricles by ICV injection using a 2.5 mm×30 gauge needle attached to a Hamilton syringe. All test peptides were dissolved in phosphate buffered saline. Mice were given 5 μl ICV injections of the test peptides or saline, following which they were observed closely for 3 hours.
(§1) Following ICV administration of GLP-1 [5 μg/5 μl; Glucagon-like Peptide 1 (7-36) amide, human, lot # AM680, Bachem California, Torrence, Calif.], Exendin(9-39) amide (10 μg/5 μl; lot # ZN136, Bachem California, Torrence, Calif.), Exendin-4 amide (15 μg/5 μl; kit # 506189, Bachem California, Torrence, Calif.), or PBS, mice were placed into individual cages for the period of observation.
(§2) To record food intake, mice were given a pre-weighed (approx. 3 g) amount of rodent chow when all members of a test group appeared fully alert, generally about 20-30 minutes after ICV injection.
(§3) Approximately 15-20 min. after the mice had begun to eat, or no longer than 30 min. following the addition of the pre-weighed rodent chow to the cages, the parameter of arousal/sedation was assessed, namely mice were assessed for locomotor activity by measuring the number of times each animal crossed over a line that was placed in the center of the cage (line test).
(§4) The Locomotor activity was assessed for 3×30 min consecutive periods. The data for the first 30 minutes observation period is shown in the accompanying FIG. 1.

[2] = test system: GLP-1R^(-/-) knockout mice; experiment: Line test (locomotor activity) after ICV injection, GLP-1R knockout mice; format: in vivo; conditions: GLP-1R knockout mice fasted overnight; ICV 5 μl; GLP-1 5 μg, Exendin(9-39) amide 10 μg, Exendin-4 amide 15 μg
Experimental: GLP-1R^(-/-) knockout age-matched male mice, produced as described above in example 1, were bred in the Toronto Hospital animal facility. All mice were fed a diet of ad libitum access to standard laboratory rat chow and tap water.
All mice were faster overnight 16 hours prior to the start of the experiment. Mice were lightly anesthetized by placing them in a covered beaker with 800 μl of Methoxyflurane (Metofane, Jannsen Pharmaceuticals) for approximately 3 minutes. Peptides were delivered into the ventricles by ICV injection using a 2.5 mm×30 gauge needle attached to a Hamilton syringe. All test peptides were dissolved in phosphate buffered saline.
as §1, §2, §3, §4

[3] = test system: rats; conditions: ICV administration; cited from earlier work
[4] = test system: normal wildtype mice; experiment: Dose response experiment, line test after ICV injection, non-fasted mice; format: in vivo; conditions: for mean number of line crossings: not fasted, saline control 66.8
Experimental: A dose response experiment was performed to compare the specific activities of exendin and GLP-1 peptides. Additionally, this experiment was designed to eliminate the possibility that the sedative response was connected to any feeding behavior. Therefore, mice were not fasted prior to the experiment, and were instead allowed food and water ad libitum throughout their dark cycle. At the beginning of the light cycle, food was removed and peptides administered. Exendin or GLP-1 peptide, obtained as described above, were each injected ICV into normal wildtype mice at a concentration of 0.5, 1.0, 5.0 or 10.0 μg per 5 μl, and locomotor activity assessed as above.

Substance | locomotor activity (number of line cross events) [1] | locomotor activity / lethargy [2] | food intake / feeding [3] | mean number of line crossings ([4]; 0.5 μg per 5 μl ICV (lowest dose)) | potency relative to GLP-1 on a weight (μg) basis ([4]; sedative effect in the mammalian central nervous system, ICV) | mean number of line crossings ([4]; 10 μg per 5 μl ICV (highest dose)) | locomotor activity [3]
Exendin(9-39) amide | greatly increased locomotor activity | induced lethargy | doubled food intake |  |  |  | 
Exendin-4 amide [exendin 4] | clear and marked decreased number of line cross events | induced lethargy and reduced movement |  | 11.5 | at least 20 fold |  | 
Glucagon-like Peptide 1 (7-36) amide [GLP-1] | exhibited the same tendency | did not | inhibits feeding |  |  | 24 | reduction in locomotor activity
